These results are taken from patent US9029135B2 (priority 2009, dated 2015).

Where “and” joins values, the source holds several entries; their conditions need not be identical. Identical values can stand only once.

The test system of one test is APL cells. The experiment in a line: APL mouse model survival, Kaplan-Meier, mice followed for two years. The class given is in vivo, FVB/N mice. Conditions: Kaplan-Meier survival curves. The method, then: The effect of different DNA constructs on an APL mouse model was studied using the protocol disclosed in Padua et al. (2003, Nature Medicine 9:1413-1417). Briefly, 10^4 APL cells were injected to FVB/N mice. Then an ATRA pellet, which releases 5 mg/day of ATRA for 21 days, was introduced behind the neck of the mice with a trochar. DNA (2×50 micrograms of plasmid) was injected the day after introducing the ATRA pellet, and every 20 days for a total of three injections. The following DNA constructs were injected to the mice: • the pVaxKanAS construct, also referred to as pVax14; • the pCDNA3PML-RARαFrC construct (VVACS01); • the pVaxPML-RARαFrC construct; and • the pCDNA3PML-RARαASFrC construct (VVACS04).
A pellet purchased from the manufacturer of the ATRA pellet (Innovative Research, Sarasota, USA) was used as a placebo.
The mice were followed for two years and Kaplan-Meier curves were constructed.
The results are shown on FIG. 2 and in Table 1 herebelow. The log-rank (Mantel-Cox) and general Wilcoxon tests were applied to the Kaplan-Meier curves. Both statistical tests led to identical conclusions in terms of significance.

A further test concerns MDS mouse model. The experiment in a line: MDS mouse model, combination of KanAS, ATRA and 5-azacytidine, survival. Conditions: MDS mice, individual mouse; alive = still alive on 24 Mar. 2010. The class given is in vivo. The method, then:
The MDS mouse model described in Omidvar et al. (2007, Cancer Res. 67:11657-67) was used to study the effect of the combination of KanAS, ATRA and 5-azacytidine on MDS.
100 microliters of 1 mg/ml solution of 5-Azacytidine was injected IP to the mice on the day of diagnosis and then on Mondays, Wednesdays and Fridays until death of the mice.
ATRA was administered through a 10 mg 21 day release pellet
The vaccination protocol was as follows: 100 micrograms of DNA (VVACS02 or pVax14 or pVaxKanAS) were administered […] diagnosis (day 0), which corresponded to the day on which the peripheral blood platelet count fell below normal (<10^5/microliter). On day 20 and on day 40, 2×50 micrograms of DNA were injected again.
The mice were randomly divided into four groups after twelve 5-azacytidine injections: • 5-Azacytidine (n=5) • 5-azacytidine+ATRA (n=4) • 5-azacytidine+VVACS02 DNA (n=4) • 5-azacytidine+ATRA+VVACS02 DNA (n=4)

As to `CC1=C(/C=C/C(C)=C/C=C/C(C)=C/C(=O)O)C(C)(C)CCC1` [ATRA, all-trans retinoic acid], in the test on APL cells (V.S. placebo), the “general Wilcoxon Chi-2 value” came to 5.1827E+01, the “general Wilcoxon significance (p bound)” value was “p < 0.0001”, the “log-rank (Mantel-Cox) Chi-2 value” is reported as 6.0018E+01 and the “log-rank (Mantel-Cox) significance (p bound)” value was “p < 0.0001”. Further, in the test with APL cells (V.S. placebo + DNA), the “general Wilcoxon Chi-2 value” is recorded as 1.6318E+01, the “general Wilcoxon significance (p bound)” value is listed as “p < 0.0001”, the “log-rank (Mantel-Cox) Chi-2 value” is 8.7059E+00 and the “log-rank (Mantel-Cox) significance (p bound)” value was “p < 0.005”.

In the case of `Nc1ncn([C@@H]2O[C@H](CO)[C@@H](O)[C@H]2O)c(=O)n1` [5-azacytidine], the “Days alive from treatment” value in the test with MDS mouse model was 33 days and Alive on 24 Mar. 2010 (112 days) and 72 days and Alive on 24 Mar. 2010 (75 days) and 37 days.
